PubChem BioAssay (NCI)
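Assay format: 96-well plates, 48-hour exposure. Here, GI50 denotes the concentration required for 50% inhibition of growth. TGI marks complete inhibition of growth.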

Experiments:
Test in all cases: NCI anticancer screen, dose series, 48 h
786-0 renal = test system: 786-0 renal
A498 renal = test system: A498 renal
A549 NSCLC = test system: A549 NSCLC
CAKI-1 renal = test system: CAKI-1 renal
HCC-2998 colon = test system: HCC-2998 colon
HOP-62 NSCLC = test system: HOP-62 NSCLC
MALME-3M melanoma = test system: MALME-3M melanoma
NCI-H460 lung = test system: NCI-H460 lung
RPMI-8226 leukemia = test system: RPMI-8226 leukemia
SW-620 colon = test system: SW-620 colon

Row | SMILES | GI50 (786-0 renal) | TGI (786-0 renal) | GI50 (A498 renal) | TGI (A498 renal) | GI50 (A549 NSCLC) | TGI (A549 NSCLC) | GI50 (CAKI-1 renal) | TGI (CAKI-1 renal) | GI50 (HCC-2998 colon) | TGI (HCC-2998 colon) | GI50 (HOP-62 NSCLC) | TGI (HOP-62 NSCLC) | GI50 (MALME-3M melanoma) | TGI (MALME-3M melanoma) | GI50 (NCI-H460 lung) | TGI (NCI-H460 lung) | GI50 (RPMI-8226 leukemia) | TGI (RPMI-8226 leukemia) | GI50 (SW-620 colon) | TGI (SW-620 colon)
1 | Cc1cn2c(/C=C3/C(=O)Nc4ccc(C(=O)O)cc43)c(C)nc2s1 | > 100 µM | > 100 µM | > 100 µM | > 100 µM | > 100 µM | > 100 µM | > 100 µM | > 100 µM | > 100 µM | > 100 µM | > 100 µM | > 100 µM | > 100 µM | > 100 µM | > 100 µM | > 100 µM | > 100 µM | > 100 µM | > 100 µM | > 100 µM
2 | CC1(C)N=C(N)N=C(N)N1c1ccc(OCCCCNC(=O)Nc2cccc(S(=O)(=O)F)c2)c(Cl)c1 | 2.75 µM | > 100 µM | 14.5 µM | > 100 µM | 2.27 µM | > 100 µM | 35.4 µM | > 100 µM | 5.22 µM | > 100 µM | 10.6 µM | > 100 µM | 29.6 µM | > 100 µM | 0.377 µM | 25.3 µM | 3 µM | 93.3 µM | 0.657 µM | > 100 µM
3 | c1ccc2c(c1)[O][Sn][O]2 | 23.6 µg/mL | > 150 µg/mL | 41.2 µg/mL | > 150 µg/mL | 11 µg/mL | > 150 µg/mL | 30.2 µg/mL | > 150 µg/mL | 81.5 µg/mL | > 150 µg/mL | 36.1 µg/mL | > 150 µg/mL | 90.9 µg/mL | > 150 µg/mL | 46 µg/mL | > 150 µg/mL | 7.54 µg/mL | > 150 µg/mL | 69 µg/mL | > 150 µg/mL
4 | CCN(CCNc1ccc(C)c2sc3cc(Cl)ccc3c(=O)c12)CC(C)(C)O | 5.13 µM | 17.7 µM | 3.47 µM | 14.9 µM | 5.2 µM | 19.5 µM | 1.51 µM | 4.9 µM | 2.02 µM | 4.08 µM | 3.87 µM | 16.1 µM | 2.16 µM | 7.3 µM | 2.33 µM | 5 µM | 3.86 µM | 22.2 µM | 3.64 µM | 13.4 µM
5 | CN(C)CCNC(=O)c1cccc2cc3ccc4ccccc4c3nc12 |  | 1.37 µM |  | 0.0693 µM |  | 0.56 µM |  | 2.14 µM |  | 0.252 µM |  | 0.309 µM |  | 0.76 µM |  | 0.163 µM |  | 0.527 µM |  | 1.19 µM
6 | Cc1cc2c(cc1C)[n+](=O)c(C(=O)/C=C/c1ccccc1[N+](=O)[O-])c(C)n2[O-] |  | 68.4 µM |  | 91.8 µM |  | > 100 µM |  | > 97.7 µM |  | > 100 µM |  | > 84.1 µM |  | > 96.7 µM |  | > 100 µM |  | > 100 µM |  | > 100 µM
7 | C=CC[PH+](c1ccccc1)c1ccccc1.C=CC[PH+](c1ccccc1)c1ccccc1.[Pt+2].[S-]c1ncccn1.[S-]c1ncccn1 | 18.8 µM | 48.1 µM | 11.5 µM | > 100 µM | 26.3 µM | > 100 µM | 7.66 µM | 29.2 µM | 19.1 µM | 41.5 µM | 39.5 µM | > 100 µM | 2.5 µM | 10.4 µM | 18.5 µM | 48.1 µM | 3.16 µM | 17.4 µM | 4.75 µM | 29.7 µM
8 | Cc1ccccc1CNc1c2ccccc2nc2ccccc12 | 2.54 µM | 7.47 µM | 1.42 µM | 2.96 µM | 2.09 µM | 5.22 µM | 1.42 µM | 3.45 µM | 1.73 µM | 3.65 µM | 3.02 µM | 14.6 µM | 1.66 µM | 3.11 µM | 1.86 µM | 4.71 µM | 1.52 µM | 4.56 µM | 1.77 µM | 5.64 µM
9 | O=C(Nc1ccc(Cl)c(C(F)(F)F)c1)C(=O)c1c(O)c2ccccc2oc1=O |  | > 100 µM |  | > 100 µM |  | > 100 µM |  | > 100 µM |  | > 100 µM |  | > 100 µM |  | > 100 µM |  | > 100 µM |  | > 100 µM |  | > 100 µM
10 | Cc1c(C)c2ccc(OC(C)C(=O)O)cc2oc1=O (stereo not given) |  | > 100 µM |  | > 100 µM |  | > 100 µM |  | > 100 µM |  | > 100 µM |  | > 100 µM |  | > 100 µM |  | > 100 µM |  | > 100 µM |  | > 100 µM
11 | CCc1ccc(C2=NN(c3ccc(S(C)(=O)=O)cc3)C(=O)CC2)cc1 | 4.39 µM | 54.4 µM | 0.322 µM | 4.46 µM | 0.913 µM | > 100 µM | 1.65 µM | > 28.7 µM | 3.96 µM | 33.4 µM | 2.68 µM | > 30.8 µM | 3.58 µM | > 82.2 µM | 1.28 µM | 13.1 µM | 3.97 µM | > 57.6 µM | 0.56 µM | > 100 µM
